This note sets out measurements from patent US4177292A, “Novel 5H-benzocyclohepten-7-amines” (Roussel Uclaf, priority 1977, dated 1979).

Where a name gives a salt, the structure may show the parent alone. Read-outs that look alike come from different tables or passages of the source.

One series in a line: Acute toxicity. The following applies: mouse, in vivo, ip; mice, intraperitoneal, determined 48 hours later; read-out: DL50. Here is the method: The DL50 dose which kills 50% of mice after intraperitoneal administration of the test compound was determined 48 hours later and the DL50 for the compounds is reported in Table III.
Series [1] relates to uptake of 14C-5HT in synaptosomes. Description: Inhibition of Serotonine uptake in vivo (synaptosomes prepared after intraperitoneal administration). The conditions noted are these: Rattus norvegicus, ip, 5 mg/kg intraperitoneal, female rats 19 to 21 days old. The protocol: (§1) The inhibition of serotonine (5HT) uptake was measured in impure synaptosomes prepared from the entire brain of a female rat 19 to 21 days old using the technique of Kannengiesser et al [Biochemical Pharmacology, Vol. 22, (1973) p. 73].
The tested products were intraperitoneally administered to a groups of female rats 19 to 21 days old at doses of 5 mg/kg. After 1 hour or 24 hours, the brain was removed and synaptosomes were prepared and placed in an incubator in the presence of 14 C-5HT as indicated in the previous test.

The test system of the next series is dogs. The series is described as follows: Anorexigenic activity. Type of series: in vivo, dog. The following applies: oral (gelules), 10 mg/kg, starved about 15 hours. Here is the method:
This activity was determined on dogs by the method of Adams et al [J. Pharm. Sci., Vol. 53 (1964), p. 1405] in which the animals received as food exclusively U.A.R. mash with a base of 800 g per day per dog. On the day of the test of a presumed anorexigenic agent, the daily individual ration of the dogs was divided into approximately equal small balls (15 to 20 g) which were offered to the dogs every 10 minutes for 8 hours. Normally the animals regularly accept the small balls successively when they are presented. […] The hourly number of refusal is determined in the animals treated with the same dose and is expressed as a percentage of the total hourly number of small balls presented per […]. At the start of the test, the animals had been starved for about 15 hours although they had drinking water available. They are deprived of water during the test. The test was effected with a group of 7 bastard dogs both male and female weighing between 11.4 and 14 kg (12.1 kg average) selected as a function of their response to a weak dose (5 mg/kg) of fenfluramine.

Series [2] relates to serotonine (5HT) uptake in synaptosomes. The series is described as follows: Inhibition of Serotonine uptake in vitro. The series is classed as biochemical. The following applies: impure synaptosomes from entire brain of female rat 19 to 21 days old; 37° C., 5 minutes; 14C-5HT 10^-7 M; read-out: Inhibiting concentration IC50 of 14C-5HT uptake. The protocol:
as §1

Where [3] appears, read: 1 hour, read-out: % inhibition of 14C-5HT uptake after 1 Hour.
The mark [4] stands for this setting: 24 hours, read-out: % inhibition of 14C-5HT uptake after 24 Hours.

As usually defined, the inhibition is how much of the control response was suppressed. Turning to `CN(C)[C@H]1CCc2ccccc2[C@@H](Oc2ccc([N+](=O)[O-])cc2)C1` (relative stereo) [Example 1, fumarate of cis N,N-dimethyl-5-[4-nitrophenyloxy]-6,7,8,9-tetrahydro-5H-benzocycloheptene-7-amine], the LD50 at 48 h in the series “Acute toxicity” came out at 100 mg/kg. The figures for the inhibition at 5 mg/kg in series [1] (setting [3]) and in series [1] (setting [4]) were 58 ± 4% and 67 ± 2%, respectively. In addition, the “oral anorexigenic activity (refusal of food balls)” value with dogs is on record as “important oral anorexigenic activity”. Besides, the IC50 in series [2] turned out to be 340 nM.

Consider `CN(C)[C@@H]1CCc2ccccc2[C@H](Oc2ccc(N)cc2)C1.Cl.Cl` (relative stereo) [Example 2, cis N,N-dimethyl-5-[4-aminophenoxy]-6,7,8,9-tetrahydro-5H-benzocycloheptene-7-amine dihydrochloride], for which, in the series “Acute toxicity”, the LD50 at 48 h was found to be 200 mg/kg. Further, in series [2], the IC50 turned out to be 14000 nM.

As to `CN(C)[C@@H]1CCc2ccccc2[C@H](Oc2ccc(C(F)(F)F)cc2)C1.Cl` (relative stereo) [Example 3, cis N,N-dimethyl-5-[4-trifluoromethylphenoxy]-6,7,8,9-tetrahydro-5H-benzocycloheptene-7-amine hydrochloride], the LD50 at 48 h in “Acute toxicity” is 150 mg/kg. The IC50 in series [2] was 760 nM.

`CN(C)[C@H]1CCc2ccccc2[C@H](Oc2ccc([N+](=O)[O-])cc2)C1.Cl` (relative stereo) [Example 4, trans N,N-dimethyl-5-[4-nitrophenoxy]-6,7,8,9-tetrahydro-5H-benzocycloheptene-7-amine hydrochloride]: in the series “Acute toxicity”, the LD50 at 48 h is 100 mg/kg. The inhibition at 5 mg/kg in series [1] (setting [3]) amounted to 61 ± 2%; in series [1] (setting [4]) it was 39 ± 4%. Further, the IC50 in series [2] was determined as 83 nM.

In the case of `CN(C)[C@@H]1CCc2ccccc2[C@H](Oc2ccccc2C(F)(F)F)C1.Cl` (relative stereo) [Example 5, cis N,N-dimethyl-5-[2-trifluoromethylphenoxy]-6,7,8,9-tetrahydro-5H-benzocycloheptene-7-amine hydrochloride], in “Acute toxicity”, the LD50 at 48 h turned out to be 200 mg/kg. Further, the IC50 in series [2] stood at 2300 nM.

`CN[C@@H]1CCc2ccccc2[C@H](Oc2ccc(C(F)(F)F)cc2)C1.Cl` (relative stereo) [Example 6, cis N-methyl-5-[4-trifluoromethylphenoxy]-6,7,8,9-tetrahydro-5H-benzocycloheptene-7-amine hydrochloride]: the LD50 at 48 h in the series “Acute toxicity” stood at 400 mg/kg. For the same compound, the inhibition at 5 mg/kg in series [1] (setting [3]) stood at 41 ± 3%; in series [1] (setting [4]), 61 ± 3%. The IC50 in series [2] was found to be 1900 nM.

Take `CN(C)[C@@H]1CCc2ccccc2[C@H](Oc2ccc(Br)cc2)C1.Cl` (relative stereo) [Example 7, cis N,N-dimethyl-5-[4-bromophenoxy]-6,7,8,9-tetrahydro-5H-benzocyclohepten-7-amine hydrochloride]: the LD50 at 48 h in “Acute toxicity” came to 150 mg/kg. The inhibition at 5 mg/kg worked out at 40 ± 3% in series [1] (setting [3]) and 65 ± 2% in series [1] (setting [4]). Besides, in series [2], the IC50 was determined as 320 nM.

Regarding `CN(C)[C@@H]1CCc2ccccc2[C@H](Oc2ccccc2[N+](=O)[O-])C1.Cl` (relative stereo) [Example 8, cis N,N-dimethyl-5-[2-nitrophenoxy]-6,7,8,9-tetrahydro-5H-benzocyclohepten-7-amine hydrochloride], the LD50 at 48 h in the series “Acute toxicity” was determined as 150 mg/kg. For the same compound, the IC50 in series [2] came out at 4000 nM.

As for `COc1ccccc1O[C@@H]1C[C@H](N(C)C)CCc2ccccc21` (relative stereo) [Example 10, cis N,N-dimethyl-5-[2-methoxyphenoxy]-6,7,8,9-tetrahydro-5H-benzocyclohepten-7-amine hydrochloride], the IC50 in series [2] is 1300 nM.

With `COc1ccc(O[C@@H]2C[C@H](N(C)C)CCc3ccccc32)cc1` (relative stereo) [Example 11, cis N,N-dimethyl-5-[4-methoxyphenoxy]-6,7,8,9-tetrahydro-5H-benzocyclohepten-7-amine hydrochloride], the IC50 in series [2] was determined as 1300 nM.

For `CN(C)[C@H]1CCc2ccccc2[C@@H](Oc2ccc([N+](=O)[O-])c(C(F)(F)F)c2)C1` (relative stereo) [Example 17, cis-N,N-dimethyl-5-[4-nitro-3-trifluoromethylphenoxy]-6,7,8,9,-tetrahydro-5H-benzocyclohepten-7-amine], in “Acute toxicity”, the LD50 at 48 h is greater than 400 mg/kg. For the same compound, the IC50 in series [2] turned out to be 950 nM.

As to `CN(C)[C@H]1CCc2ccc(Cl)cc2[C@H](Oc2ccc([N+](=O)[O-])cc2)C1.Cl` (relative stereo) [Example 18, trans N,N-dimethyl-3-chloro-5-[4-nitrophenoxy]-6,7,8,9-tetrahydro-5H-benzocyclohepten-7-amine hydrochloride], in “Acute toxicity”, the LD50 at 48 h stood at 100 mg/kg. In addition, the IC50 in series [2] was determined as 1500 nM.

For the compound `CN(C)[C@H]1CCc2ccc(Cl)cc2[C@@H](Oc2ccc([N+](=O)[O-])cc2)C1` (relative stereo) [Example 19, cis N,N-dimethyl-3-chloro-5-[4-nitrophenoxy]-6,7,8,9-tetrahydro-5H-benzocyclohepten-7-amino hydrochloride], the LD50 at 48 h in “Acute toxicity” is greater than 200 mg/kg. Also, in series [2], the IC50 was 7100 nM.
